Experiments:
Test in all cases: KINOMEscan
Settings in all cases: read-out: Percent Control
[1] = biological target: CTK (Homo sapiens, UniProt P42679)
Procedure: (§1) The kinase engagement assay (KINOMEscan®) was performed by DiscoverX assessing binding abilities toward a set of kinases.

[2] = biological target: MRCKA (Homo sapiens, UniProt Q5VT25)
Procedure: as §1

[3] = biological target: PKN2 (Homo sapiens, UniProt Q16513)
Procedure: as §1

[4] = biological target: PYK2 (Homo sapiens, UniProt Q14289)
Procedure: as §1

[5] = biological target: DYRK1B (Homo sapiens, UniProt Q9Y463)
Procedure: as §1

[6] = biological target: NEK3 (Homo sapiens, UniProt P51956)
Procedure: as §1

[7] = biological target: MKK7 (Homo sapiens, UniProt O14733)
MKK7, sequence (O14733 whole entry): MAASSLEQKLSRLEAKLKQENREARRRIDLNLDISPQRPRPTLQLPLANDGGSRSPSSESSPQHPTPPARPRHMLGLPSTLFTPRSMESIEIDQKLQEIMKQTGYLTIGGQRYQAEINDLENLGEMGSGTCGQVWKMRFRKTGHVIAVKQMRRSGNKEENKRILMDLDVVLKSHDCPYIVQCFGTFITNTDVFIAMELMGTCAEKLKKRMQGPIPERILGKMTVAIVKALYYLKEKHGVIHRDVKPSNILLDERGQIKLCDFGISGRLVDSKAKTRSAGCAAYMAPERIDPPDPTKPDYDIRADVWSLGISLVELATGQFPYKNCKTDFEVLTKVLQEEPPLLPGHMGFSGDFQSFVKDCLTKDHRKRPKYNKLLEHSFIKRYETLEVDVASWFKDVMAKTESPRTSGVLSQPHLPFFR
Procedure: as §1

[8] = biological target: ABL1-phosphorylated (Homo sapiens, UniProt P00519)
Procedure: as §1

[9] = biological target: MST4 (Homo sapiens, UniProt Q9P289)
MST4, sequence (Q9P289 whole entry): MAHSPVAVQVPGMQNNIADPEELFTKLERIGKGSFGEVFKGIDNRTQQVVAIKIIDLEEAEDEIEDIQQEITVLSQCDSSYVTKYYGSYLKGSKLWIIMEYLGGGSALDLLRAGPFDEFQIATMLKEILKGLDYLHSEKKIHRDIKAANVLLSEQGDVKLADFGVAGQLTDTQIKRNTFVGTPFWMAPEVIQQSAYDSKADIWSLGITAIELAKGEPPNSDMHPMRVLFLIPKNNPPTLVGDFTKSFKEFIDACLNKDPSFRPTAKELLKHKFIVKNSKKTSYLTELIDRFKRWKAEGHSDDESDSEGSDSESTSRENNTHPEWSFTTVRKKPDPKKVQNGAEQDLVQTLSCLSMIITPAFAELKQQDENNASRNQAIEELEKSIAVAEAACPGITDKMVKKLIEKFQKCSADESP
Procedure: as §1

[10] = biological target: CAMK2A (Homo sapiens, UniProt Q9UQM7)
Procedure: as §1

[11] = biological target: TRKA (Homo sapiens, UniProt P04629)
Procedure: as §1

[12] = biological target: WEE1 (Homo sapiens, UniProt P30291)
WEE1, sequence (P30291 whole entry): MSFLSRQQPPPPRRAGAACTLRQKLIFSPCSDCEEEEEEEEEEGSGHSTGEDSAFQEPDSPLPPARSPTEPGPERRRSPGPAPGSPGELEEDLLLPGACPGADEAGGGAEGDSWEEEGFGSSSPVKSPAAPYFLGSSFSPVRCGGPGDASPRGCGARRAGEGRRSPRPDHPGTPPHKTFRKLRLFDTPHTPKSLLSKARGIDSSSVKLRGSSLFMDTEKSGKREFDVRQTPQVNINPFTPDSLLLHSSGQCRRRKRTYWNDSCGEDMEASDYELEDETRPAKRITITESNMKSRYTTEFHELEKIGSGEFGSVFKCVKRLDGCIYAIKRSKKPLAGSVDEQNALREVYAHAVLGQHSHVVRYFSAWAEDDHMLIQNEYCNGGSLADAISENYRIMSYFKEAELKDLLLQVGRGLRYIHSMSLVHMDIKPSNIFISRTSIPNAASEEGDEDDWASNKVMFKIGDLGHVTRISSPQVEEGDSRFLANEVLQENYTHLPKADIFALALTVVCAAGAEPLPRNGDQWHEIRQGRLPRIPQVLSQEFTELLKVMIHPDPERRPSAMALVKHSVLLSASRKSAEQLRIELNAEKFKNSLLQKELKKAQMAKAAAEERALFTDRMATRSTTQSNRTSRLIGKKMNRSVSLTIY
Procedure: as §1

[13] = biological target: GRK2 (Homo sapiens, UniProt P25098)
GRK2, sequence (P25098 whole entry): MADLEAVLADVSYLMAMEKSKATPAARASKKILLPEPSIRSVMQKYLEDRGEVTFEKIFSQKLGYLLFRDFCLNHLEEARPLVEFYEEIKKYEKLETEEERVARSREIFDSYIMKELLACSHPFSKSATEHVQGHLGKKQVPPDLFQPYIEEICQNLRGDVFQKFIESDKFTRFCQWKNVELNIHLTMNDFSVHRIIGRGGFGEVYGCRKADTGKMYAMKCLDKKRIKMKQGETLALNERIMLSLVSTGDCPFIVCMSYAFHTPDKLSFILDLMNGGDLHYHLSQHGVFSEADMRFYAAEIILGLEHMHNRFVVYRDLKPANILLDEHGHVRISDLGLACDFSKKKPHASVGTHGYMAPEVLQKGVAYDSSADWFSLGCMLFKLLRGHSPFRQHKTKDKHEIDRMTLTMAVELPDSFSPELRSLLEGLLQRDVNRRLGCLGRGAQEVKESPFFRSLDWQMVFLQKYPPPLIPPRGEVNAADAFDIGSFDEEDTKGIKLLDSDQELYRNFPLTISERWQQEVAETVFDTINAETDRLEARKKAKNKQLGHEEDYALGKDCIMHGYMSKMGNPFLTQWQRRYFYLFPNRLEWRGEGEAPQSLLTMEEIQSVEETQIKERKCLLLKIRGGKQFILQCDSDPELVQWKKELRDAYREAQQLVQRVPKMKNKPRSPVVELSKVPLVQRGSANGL
Procedure: as §1

[14] = biological target: BMX (Homo sapiens, UniProt P51813)
Procedure: as §1

[15] = biological target: PHKG2 (Homo sapiens, UniProt P15735)
Procedure: as §1

[16] = biological target: AURKA (Homo sapiens, UniProt O14965)
Procedure: as §1

[17] = biological target: INSRR (Homo sapiens, UniProt P14616)
Procedure: as §1

[18] = biological target: EGFR(L747-T751del, Sins) (Homo sapiens, UniProt P00533, DEL747-750/T751S)
Procedure: as §1

[19] = biological target: BRAF (Homo sapiens, UniProt P15056)
Procedure: as §1

[20] = biological target: LKB1 (Homo sapiens, UniProt Q15831)
Procedure: as §1

[21] = biological target: PIP5K2C (Homo sapiens, UniProt Q8TBX8)
Procedure: as §1

[22] = biological target: BRAF(V600E) (Homo sapiens, UniProt P15056, V600E)
Procedure: as §1

[23] = biological target: EGFR(S752-1759del) (Homo sapiens, UniProt P00533, DEL752-759)
Procedure: as §1

[24] = biological target: ULK1 (Homo sapiens, UniProt O75385)
Procedure: as §1

[25] = biological target: MAP4K3 (Homo sapiens, UniProt Q8IVH8)
Procedure: as §1

[26] = biological target: TBK1 (Homo sapiens, UniProt Q9UHD2)
Procedure: as §1

[27] = biological target: FLT1 (Homo sapiens, UniProt P17948)
Procedure: as §1

[28] = biological target: PIP5K1A (Homo sapiens, UniProt Q99755)
PIP5K1A, sequence (Q99755 whole entry): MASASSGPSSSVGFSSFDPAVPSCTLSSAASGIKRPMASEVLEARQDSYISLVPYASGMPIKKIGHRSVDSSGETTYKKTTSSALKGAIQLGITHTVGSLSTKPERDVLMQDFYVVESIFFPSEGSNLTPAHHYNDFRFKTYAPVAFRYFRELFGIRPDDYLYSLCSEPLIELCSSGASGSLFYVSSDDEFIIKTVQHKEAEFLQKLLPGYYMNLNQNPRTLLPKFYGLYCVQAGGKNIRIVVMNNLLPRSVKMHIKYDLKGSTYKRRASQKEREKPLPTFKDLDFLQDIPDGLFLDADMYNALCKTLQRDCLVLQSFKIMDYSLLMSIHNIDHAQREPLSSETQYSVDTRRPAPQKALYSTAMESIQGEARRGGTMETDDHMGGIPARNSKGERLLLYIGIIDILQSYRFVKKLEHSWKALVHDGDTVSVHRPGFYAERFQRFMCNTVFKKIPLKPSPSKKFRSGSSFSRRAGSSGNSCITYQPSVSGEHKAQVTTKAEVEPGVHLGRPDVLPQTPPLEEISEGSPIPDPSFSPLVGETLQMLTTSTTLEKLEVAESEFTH
Procedure: as §1

[29] = biological target: MINK (Homo sapiens, UniProt Q8N4C8)
Procedure: as §1

[30] = biological target: PRKD2 (Homo sapiens, UniProt Q9BZL6)
Procedure: as §1

[31] = biological target: DLK (Homo sapiens, UniProt Q12852)
Procedure: as §1

[32] = biological target: PLK2 (Homo sapiens, UniProt Q9NYY3)
PLK2, sequence (Q9NYY3 whole entry): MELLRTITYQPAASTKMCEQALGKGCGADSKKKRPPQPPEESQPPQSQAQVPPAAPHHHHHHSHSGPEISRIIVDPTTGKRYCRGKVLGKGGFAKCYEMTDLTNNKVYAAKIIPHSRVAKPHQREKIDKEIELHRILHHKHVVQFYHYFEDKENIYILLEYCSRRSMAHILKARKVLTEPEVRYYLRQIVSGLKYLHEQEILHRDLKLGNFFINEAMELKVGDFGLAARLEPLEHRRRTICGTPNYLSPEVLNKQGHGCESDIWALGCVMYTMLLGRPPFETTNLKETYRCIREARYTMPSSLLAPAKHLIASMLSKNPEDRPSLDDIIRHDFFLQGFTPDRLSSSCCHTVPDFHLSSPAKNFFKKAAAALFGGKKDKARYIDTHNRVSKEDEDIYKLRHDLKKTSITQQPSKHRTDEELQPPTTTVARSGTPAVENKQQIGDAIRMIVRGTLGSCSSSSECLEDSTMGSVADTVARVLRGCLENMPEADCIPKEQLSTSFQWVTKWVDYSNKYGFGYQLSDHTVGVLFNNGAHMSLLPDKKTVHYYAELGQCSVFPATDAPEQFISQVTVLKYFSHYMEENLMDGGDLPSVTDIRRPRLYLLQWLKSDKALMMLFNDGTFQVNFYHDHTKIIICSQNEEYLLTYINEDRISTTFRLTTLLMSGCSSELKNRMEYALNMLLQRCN
Procedure: as §1

[33] = biological target: MEK4 (Homo sapiens, UniProt P45985)
Procedure: as §1

[34] = biological target: MAPKAPK2 (Homo sapiens, UniProt P49137)
Procedure: as §1

[35] = biological target: ALK(L1196M) (Homo sapiens, UniProt Q9UM73, L1196M)
Procedure: as §1

[36] = biological target: ABL1(F317I)-phosphorylated (Homo sapiens, UniProt P00519, F317I)
Procedure: as §1

[37] = biological target: LTK (Homo sapiens, UniProt P29376)
Procedure: as §1

[38] = biological target: SYK (Homo sapiens, UniProt P43405)
Procedure: as §1

PKN2, sequence (Q16513 whole entry): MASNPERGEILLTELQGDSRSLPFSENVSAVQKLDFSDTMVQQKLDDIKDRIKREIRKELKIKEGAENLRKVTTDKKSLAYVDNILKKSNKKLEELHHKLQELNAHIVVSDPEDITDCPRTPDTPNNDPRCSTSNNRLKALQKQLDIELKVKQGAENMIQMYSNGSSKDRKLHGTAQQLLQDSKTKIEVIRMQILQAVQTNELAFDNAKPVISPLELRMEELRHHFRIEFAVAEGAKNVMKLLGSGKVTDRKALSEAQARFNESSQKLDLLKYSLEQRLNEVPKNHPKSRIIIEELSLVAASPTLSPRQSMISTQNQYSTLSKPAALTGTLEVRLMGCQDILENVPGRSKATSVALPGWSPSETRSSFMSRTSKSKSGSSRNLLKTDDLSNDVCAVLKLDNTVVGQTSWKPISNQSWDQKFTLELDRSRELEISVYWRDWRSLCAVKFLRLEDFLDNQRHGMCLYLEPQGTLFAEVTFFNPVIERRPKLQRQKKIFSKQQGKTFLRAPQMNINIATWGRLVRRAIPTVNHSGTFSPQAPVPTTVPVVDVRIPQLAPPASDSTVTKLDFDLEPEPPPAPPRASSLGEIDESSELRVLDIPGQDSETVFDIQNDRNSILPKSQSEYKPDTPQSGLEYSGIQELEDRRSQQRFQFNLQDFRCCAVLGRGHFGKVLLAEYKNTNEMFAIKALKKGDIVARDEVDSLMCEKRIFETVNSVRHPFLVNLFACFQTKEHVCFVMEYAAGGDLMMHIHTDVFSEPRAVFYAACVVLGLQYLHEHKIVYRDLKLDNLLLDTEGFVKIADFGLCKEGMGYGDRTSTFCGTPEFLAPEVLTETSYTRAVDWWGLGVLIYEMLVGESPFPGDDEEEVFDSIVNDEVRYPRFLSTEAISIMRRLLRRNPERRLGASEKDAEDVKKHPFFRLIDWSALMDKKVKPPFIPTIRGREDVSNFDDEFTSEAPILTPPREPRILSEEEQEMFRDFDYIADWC
DYRK1B, sequence (Q9Y463 whole entry): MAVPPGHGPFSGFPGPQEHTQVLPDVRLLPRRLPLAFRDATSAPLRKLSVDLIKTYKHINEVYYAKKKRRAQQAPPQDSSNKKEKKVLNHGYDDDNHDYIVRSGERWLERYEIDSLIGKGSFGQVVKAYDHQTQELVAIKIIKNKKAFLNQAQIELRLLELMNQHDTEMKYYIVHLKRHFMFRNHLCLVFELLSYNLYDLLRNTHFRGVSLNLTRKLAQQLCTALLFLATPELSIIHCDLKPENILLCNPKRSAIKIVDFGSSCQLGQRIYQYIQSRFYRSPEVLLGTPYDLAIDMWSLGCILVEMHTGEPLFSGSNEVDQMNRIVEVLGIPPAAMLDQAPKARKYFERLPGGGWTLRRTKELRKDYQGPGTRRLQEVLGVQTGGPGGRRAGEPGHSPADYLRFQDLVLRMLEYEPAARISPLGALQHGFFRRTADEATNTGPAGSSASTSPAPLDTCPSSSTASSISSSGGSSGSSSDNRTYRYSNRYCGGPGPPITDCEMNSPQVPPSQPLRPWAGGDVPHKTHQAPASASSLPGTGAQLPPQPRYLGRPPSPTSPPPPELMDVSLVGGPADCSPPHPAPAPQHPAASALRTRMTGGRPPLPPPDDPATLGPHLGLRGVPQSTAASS

## O=C1CCC(N2C(=O)c3cccc(NCCCCCCCCNC(=O)N4CC[C@H](NC5=Nc6cc(F)ccc6N(CC(F)F)c6ccc(Cl)cc65)C4)c3C2=O)C(=O)N1 (stereo partly drawn) [BJG-05-039, (3S)-3-((2-Chloro-5-(2,2-difluoroethyl)-8-fluoro-5H-dibenzo[b,e][1,4]diazepin-11-yl)amino)-N-(8-((2-(2,6-dioxopiperidin-3-yl)-1,3-dioxoisoindolin-4-yl)amino)octyl)pyrrolidine-1-carboxamide]
[1]
  remaining binding at 10 µM: 89%
[2]
  remaining binding at 10 µM: 63%
[3]
  remaining binding at 10 µM: 65%
[4]
  remaining binding at 10 µM: 85%
[5]
  remaining binding at 10 µM: 100%
[6]
  remaining binding at 10 µM: 100%
[7]
  remaining binding at 10 µM: 100%
[8]
  remaining binding at 10 µM: 100%
[9]
  remaining binding at 10 µM: 86%
[10]
  remaining binding at 10 µM: 39%
[11]
  remaining binding at 10 µM: 72%
[12]
  remaining binding at 10 µM: 42%
[13]
  remaining binding at 10 µM: 77%
[14]
  remaining binding at 10 µM: 90%
[15]
  remaining binding at 10 µM: 40%
[16]
  remaining binding at 10 µM: 100%
[17]
  remaining binding at 10 µM: 65%
[18]
  remaining binding at 10 µM: 80%
[19]
  remaining binding at 10 µM: 98%
[20]
  remaining binding at 10 µM: 89%
[21]
  remaining binding at 10 µM: 100%
[22]
  remaining binding at 10 µM: 100%
[23]
  remaining binding at 10 µM: 67%
[24]
  remaining binding at 10 µM: 78%
[25]
  remaining binding at 10 µM: 72%
[26]
  remaining binding at 10 µM: 100%
[27]
  remaining binding at 10 µM: 84%
[28]
  remaining binding at 10 µM: 95%
[29]
  remaining binding at 10 µM: 100%
[30]
  remaining binding at 10 µM: 53%
[31]
  remaining binding at 10 µM: 100%
[32]
  remaining binding at 10 µM: 100%
[33]
  remaining binding at 10 µM: 85%
[34]
  remaining binding at 10 µM: 60%
[35]
  remaining binding at 10 µM: 100%
[36]
  remaining binding at 10 µM: 100%
[37]
  remaining binding at 10 µM: 84%
[38]
  remaining binding at 10 µM: 92%

Reference: patent US20250312462A1, “PAK1 DEGRADERS AND METHODS OF USE THEREOF” (INSTITUTE FOR CANCER RESEARCH D/B/A THE RESEARCH INSTITUTE …, priority 2022, published 2025)
